Assay results taken from patent US20190119348A1, “PARATHYROID HORMONE RECEPTOR 1 ANTAGONIST AND INVERSE AGONIST POLYPEPTIDES AND METHODS OF THEIR USE” (The General Hospital Corporation, priority 2016, published 2019).
Where a SMILES comes first, the peptide text is derived from it. [ ]: non-standard residue; d: D form. Nle = CCCC[C@H](N)C(=O)O

Legend:
human PTHR1-T410P = biological target: T1, human PTHR1-T410P (Homo sapiens, UniProt Q03431, T410P); assay: Inverse agonism on basal cAMP signaling in GTP-4 cells; type: cell-based; details: GTP-4 cells (HEK293/GloSensor)
T1 construct: expressed in transfected cells; host or cells: GTP-4 (HEK-293 stably expressing GloSensor and PTHR1-T410P)
T1 sequence (Q03431 27-593 T410P): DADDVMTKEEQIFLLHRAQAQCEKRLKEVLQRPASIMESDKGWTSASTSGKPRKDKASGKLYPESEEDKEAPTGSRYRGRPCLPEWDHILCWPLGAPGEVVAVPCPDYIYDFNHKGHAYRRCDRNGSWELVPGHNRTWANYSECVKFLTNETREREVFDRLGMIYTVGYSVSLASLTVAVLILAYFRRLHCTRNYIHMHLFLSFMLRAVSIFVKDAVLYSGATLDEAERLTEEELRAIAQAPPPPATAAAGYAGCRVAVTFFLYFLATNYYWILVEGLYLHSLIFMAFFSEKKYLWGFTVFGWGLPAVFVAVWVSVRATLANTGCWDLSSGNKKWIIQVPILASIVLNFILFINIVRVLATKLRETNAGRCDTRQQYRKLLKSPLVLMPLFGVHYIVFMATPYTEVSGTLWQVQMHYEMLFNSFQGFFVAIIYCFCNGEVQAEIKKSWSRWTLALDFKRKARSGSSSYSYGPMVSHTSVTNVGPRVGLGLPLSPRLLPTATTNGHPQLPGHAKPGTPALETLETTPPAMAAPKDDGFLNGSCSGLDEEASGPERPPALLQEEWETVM
Method: cAMP signaling was assessed in the HEK293-derived or SaOS2-derived cell lines stably expressing the luciferase-based GloSensor™ cAMP reporter (Hattersley et al., Paper presented at: Novel Signaling Mechanisms and Bone Cell Biology 2014; Binkowski et al., Methods in molecular biology. 756:263-271). HEK-293 cells were further transfected to stably express the hPTHR1, hPTHR1-H223R, or hPTHR1-T410P. The cells were seeded into 96-well white plates and were assayed 24 to 48 hours post-confluency. Assays were performed at room temperature in CO2-independent culture media (Life Technologies, Corp., Carlsbad, Calif.) containing 0.1% BSA (CIDB). The cells were pre-loaded with luciferin (0.5 mM in CIDB) for 15 minutes, then PTH peptides were added at varying concentrations. cAMP-dependent luminescence was measured at two-minute intervals using a PerkinElmer Envision plate reader. The time at which maximum luminescence (cps) observed with agonist alone, typically at 10-20 minutes after agonist addition, was used to obtain data from wells containing antagonist with or without agonist, to thus generate antagonist ligand dose-response curves. The resulting cps values were then plotted against ligand concentration using GraphPad Prism 7.0 software and a four-parameter logistics curve fitting equation, which yielded parameters of inhibitory potency (pIC50).
These experiments were performed in HEK-293 cells stably transfected to express the GloSensor™ cAMP reporter along with a constitutively active mutant human PTHR1. The HEK-293 cells stably expressing GloSensor™ cAMP reporter along with a constitutively active mutant human PTHR1-H223R are GHR-10 cells. The HEK-293 cells stably expressing GloSensor™ cAMP reporter along with a constitutively active mutant human PTHR1-T410P are GTP-4 cells. […] Effects on basal cAMP signaling over time were assessed during periods of direct ligand addition (FIGS. 15A-15F). The measurements were performed by recording GloSensor™ luminescence as counts per second (cps) using a PerkinElmer Envision plate reader. […]

wild-type PTHR [1] = biological target: T2, wild-type PTHR (Mus musculus, UniProt P41593); assay: Mouse transient model of hyperparathyroidism (PEG-PTH(1-35)-induced hypercalcemia), blood Ca2+; type: in vivo; details: 10-week old female CD1 mice; PEG-PTH(1-35)-1925 50 nmol/kg i.v. at −24 h; peptide 500 nmol/kg at 0 h; P<0.05 vs vehicle at 2 h
T2 construct: Wild-type mice were injected with a PTH agonist analog; from tissue; host or cells: whole animal, wild-type mice (C57BL/6J per methods)
T2 sequence (P41593 27-591): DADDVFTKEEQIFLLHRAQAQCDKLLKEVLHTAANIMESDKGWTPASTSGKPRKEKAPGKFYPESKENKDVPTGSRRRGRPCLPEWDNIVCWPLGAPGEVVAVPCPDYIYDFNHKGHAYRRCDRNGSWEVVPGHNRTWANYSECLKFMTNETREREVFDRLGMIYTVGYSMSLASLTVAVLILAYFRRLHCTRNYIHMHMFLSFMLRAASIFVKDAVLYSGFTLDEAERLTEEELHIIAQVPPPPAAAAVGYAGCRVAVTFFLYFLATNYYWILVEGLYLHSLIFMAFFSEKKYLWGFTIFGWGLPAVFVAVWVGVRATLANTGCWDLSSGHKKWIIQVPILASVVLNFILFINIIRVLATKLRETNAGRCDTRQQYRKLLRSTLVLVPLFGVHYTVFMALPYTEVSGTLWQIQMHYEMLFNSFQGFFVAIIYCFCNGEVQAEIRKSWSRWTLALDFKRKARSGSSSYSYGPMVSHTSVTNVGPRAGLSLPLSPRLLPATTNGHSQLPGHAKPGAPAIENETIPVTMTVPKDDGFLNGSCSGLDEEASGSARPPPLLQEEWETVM
Method: (§1) Mice were injected IV via the tail vein or subcutaneously with ligands in vehicle (0.05% Tween80; 10 mM citrate; 150 mM NaCl; pH 5.0) to give the intended final ligand dose (e.g. 50 nmol/kg body weight). At times immediately before (t=0) and after injection, tail vein blood was collected and analyzed for blood ionized calcium (Ca^2+) measured with a RAPIDLAB 348 analyzer (SIEMENS Healthcare Diagnostic, United Kingdom).
To study antagonism at the wild-type PTHR under conditions of excess PTH, as occurs in humans with hyperparathyroidism, we developed a mouse non-genetic, transient model of hyperparathyroidism. Wild-type mice were injected with a PTH agonist analog, PEG-PTH(1-35), which induces hypercalcemia lasting between 24 and 72 hours after a single s.c. injection (see Guo et al., Journal of Bone and Mineral Research, 32:86-98, 2017). Antagonists were injected after 24 hours following the injection of PEG-PTH(1-35) and effects on blood Ca^2+ levels were measured. The results are illustrated in FIGS. 12A and 12B.

wild-type PTHR [2] = biological target: T2, wild-type PTHR; assay: Mouse model of hypercalcemia of malignancy (co-injection with PTHrP(1-36)), blood Ca2+; type: in vivo; details: 10-week old female CD1 mice; i.v. co-injection with PTHrP(1-36)-1880 10 nmol/kg; peptide 500 nmol/kg
Method: as §1
To study antagonism at the wild-type PTHR under conditions of excess PTHrP, as occurs in humans with hypercalcemia of malignancy, we co-injected wild-type mice with PTHrP(1-36) and a test antagonist and measured effects on blood Ca^2+ levels. The results are illustrated in FIG. 13.

| Structure (SMILES) | inverse agonist properties on constitutively active PTHR1-T410P (basal cAMP) (human PTHR1-T410P) | effect on blood Ca^2+ (FIG. 12A) (wild-type PTHR [1]) | effect on blood Ca^2+ levels (FIG. 13) (wild-type PTHR [2]) |
| --- | --- | --- | --- |
| CC[C@H](C)[C@H](N)C(=O)N[C@@H](CCC(N)=O)C(=O)N[C@@H](CC(C)C)C(=O)N[C@@H](CCSC)C(=O)N[C@@H](Cc1c[nH]cn1)C(=O)N[C@@H](CCC(N)=O)C(=O)N[C@@H](CCCNC(=N)N)C(=O)N[C@H](Cc1c[nH]c2ccccc12)C(=O)N[C@@H](CCCCN)C(=O)N[C@@H](Cc1c[nH]c2ccccc12)C(=O)N[C@H](C(=O)N[C@@H](CCC(N)=O)C(=O)N[C@@H](CC(=O)O)C(=O)N[C@@H](C)C(=O)N[C@@H](CCCNC(=N)N)C(=O)N[C@@H](CCCNC(=N)N)C(=O)N[C@@H](CCCNC(=N)N)C(=O)N[C@@H](C)C(=O)N[C@@H](Cc1c[nH]c2ccccc12)C(=O)N[C@@H](CC(C)C)C(=O)N[C@@H](Cc1c[nH]cn1)C(=O)N[C@@H](CCCCN)C(=O)N[C@@H](CC(C)C)C(=O)N[C@H](C(=O)N[C@@H](C)C(=O)N[C@@H](CCC(=O)O)C(=O)N[C@H](C(=O)N[C@@H](Cc1c[nH]cn1)C(=O)N[C@H](C(=O)N[C@@H](C)C(=O)N[C@@H](CCC(=O)O)C(=O)N[C@H](C(N)=O)[C@@H](C)CC)[C@@H](C)O)[C@@H](C)CC)[C@@H](C)CC)[C@@H](C)CC [compound 1949, dW12, W23-LA-PTH(5-36)] (H-IQLMHQR[dW]KWIQDARRRAWLHKLIAEIHTAEI-NH2; N-terminus assumed) | exhibited inverse agonist properties | reduced blood Ca^2+ | significant reduction of blood Ca^2+ levels |
| CC[C@H](C)[C@H](NC(=O)[C@H](CCC(=O)O)NC(=O)[C@H](C)NC(=O)[C@@H](NC(=O)[C@H](Cc1c[nH]cn1)NC(=O)[C@@H](NC(=O)[C@H](CCC(=O)O)NC(=O)[C@H](C)NC(=O)[C@@H](NC(=O)[C@H](CC(C)C)NC(=O)[C@H](CCCCN)NC(=O)[C@H](Cc1c[nH]cn1)NC(=O)[C@H](CC(C)C)NC(=O)[C@H](Cc1c[nH]c2ccccc12)NC(=O)[C@H](C)NC(=O)[C@H](CCCNC(=N)N)NC(=O)[C@H](CCCNC(=N)N)NC(=O)[C@H](CCCNC(=N)N)NC(=O)[C@H](C)NC(=O)[C@H](CC(=O)O)NC(=O)[C@H](CCC(N)=O)NC(=O)[C@@H](NC(=O)[C@H](Cc1c[nH]c2ccccc12)NC(=O)[C@H](CCCCN)NC(=O)[C@@H](Cc1c[nH]c2ccccc12)NC(=O)[C@H](CCCNC(=N)N)NC(=O)[C@H](CCC(N)=O)NC(=O)[C@H](Cc1c[nH]cn1)NC(=O)[C@H](CCSC)NC(=O)[C@@H](N)CC(C)C)[C@@H](C)CC)[C@@H](C)CC)[C@@H](C)CC)[C@@H](C)O)C(N)=O [compound 1990, dW12, W23-LA-PTH(7-36)-1990] (H-LMHQR[dW]KWIQDARRRAWLHKLIAEIHTAEI-NH2; N-terminus assumed) | inverse agonist response |  |  |
| CCCC[C@H](NC(=O)[C@@H](N)CC(C)C)C(=O)N[C@@H](Cc1c[nH]cn1)C(=O)N[C@@H](CCC(N)=O)C(=O)N[C@@H](CCCNC(=N)N)C(=O)N[C@H](Cc1c[nH]c2ccccc12)C(=O)N[C@@H](CCCCN)C(=O)N[C@@H](Cc1c[nH]c2ccccc12)C(=O)N[C@H](C(=O)N[C@@H](CCC(N)=O)C(=O)N[C@@H](CC(=O)O)C(=O)N[C@@H](C)C(=O)N[C@@H](CCCNC(=N)N)C(=O)N[C@@H](CCCNC(=N)N)C(=O)N[C@@H](CCCNC(=N)N)C(=O)N[C@@H](C)C(=O)N[C@@H](Cc1c[nH]c2ccccc12)C(=O)N[C@@H](CC(C)C)C(=O)N[C@@H](Cc1c[nH]cn1)C(=O)N[C@@H](CCCCN)C(=O)N[C@@H](CC(C)C)C(=O)N[C@H](C(=O)N[C@@H](C)C(=O)N[C@@H](CCC(=O)O)C(=O)N[C@H](C(=O)N[C@@H](Cc1c[nH]cn1)C(=O)N[C@H](C(=O)N[C@@H](C)C(=O)N[C@@H](CCC(=O)O)C(=O)N[C@H](C(N)=O)[C@@H](C)CC)[C@@H](C)O)[C@@H](C)CC)[C@@H](C)CC)[C@@H](C)CC [compound 1992, Nle8, dW12, W23-LA-PTH(7-36)-1992] (H-L[Nle]HQR[dW]KWIQDARRRAWLHKLIAEIHTAEI-NH2; N-terminus assumed) | inverse agonist response |  |  |
